Read-outs that look alike come from different tables or passages of the source.
Columns and labels:
primary human cell types = test: BioMAP Diversity Plus System profile comparison; settings: 148 phenotypic readouts, at one or more test concentration
[1] = tested on: human immortalized sebocytes; test: Sebocyte lipogenesis assay (14C-acetate); assay type: cell-based; settings: 10, 3, 1, 0.3 and 0.1 μM
Protocol: Briefly, human immortalized sebocytes (tsSV40 and hTERT) were seeded and allowed to grow to confluence in Sebocyte Growth Medium. Upon confluence, cells were transferred to […] to initiate Large T antigen degradation. Two days later, cells were stimulated with Sebocyte Labeling Medium containing 1 μM T0901317 and vehicle (DMSO) or compound 1. […] Next day, the media was replaced with Sebocyte Labeling Medium containing 1 μM T0901317 and original treatments or vehicle plus 1 μM insulin. 2 ul of 14C-acetate was added per well and the plate incubated for 4 hours. After 2 hours of incubation, 10 ul of CTB reagent was added per well for normalization. Incubation was continued for the remaining 2 hours and plates were read at Ex. 560 Em.590 for CTB signal. Cells were then washed, trypsinized and transferred to glass vials for lipid extraction. The results are expressed as % lipid production relative to control (LXR+Insulin group).
FIG. 4, the data represent % inhibition relative to control (LXR+Insulin group). Data are represented as Mean±SEM. Data are from 3 replicates.

IL-17A [2] = test: IL-17A protein secretion by peripheral blood CD4+ T cells cultured under Th17 polarizing conditions (Magpix); assay type: cell-based; settings: 5 days of culture, titrating doses
Protocol: To further understand the active dose range of compound 1-mediated suppression of Th17-associated cytokines, IL-17A protein secretion was examined in peripheral blood CD4+ T cells following 5 days of culture under Th17 polarizing conditions in the presence or absence of titrating doses of Compound 1 (FIG. 2). Supernatants were harvested at the end of the culture period and secreted protein was analyzed by Magpix (magnetic-based Luminex technology).

[3] = mouse ear edema; cited from earlier work
P. acnes = test: MIC against P. acnes on supplemented Brucella blood agar (CLSI); assay type: cell-based, Propionibacterium acnes
Protocol: Bacterial strains utilized to evaluate this concept of antibacterial synergy were the clinical isolates P. acnes 6601, 6602, AN24, 100372, and reference strain ATCC6919. These were received from the internal culture GSK collection held by the Infectious Disease CEDD at the Upper Providence site. Bacteria inocula were prepared, and the determination of the minimal inhibitory concentration (MIC) were conducted on supplemented Brucella blood agar as described for the CLSI guideline method (Bhate, K. et al. Brit. J. Derm. 168:474-485, 2013). Briefly, diluted antibacterials were added to tempered molten agar and aseptically poured into petri dishes and allowed to solidify. Following 24-hours incubation in an anaerobic environment bacterial colonies were suspended and adjusted for turbidity equivalent to a 0.5 MacFarland standard. One-two microliters of inoculums were placed on each antibiotic containing agar plate and allowed to absorb for 30 min. Plates were then inverted and incubated anaerobically for 48-72 hours before observation for growth. The lowest drug concentration which inhibited bacterial growth was designated as the MIC.

[4] = tested on: primary human keratinocytes; test: Keratinocyte viability (annexin V / propidium iodide flow cytometry); assay type: cell-based; settings: 10 and 30 uM, 48 hours
Protocol: Keratinocyte hyperproliferation increases blockage and can promote comedome formation in acne. […] The ability of Compound 1 to induce apoptosis in primary keratinocytes may contribute to efficacy in acne patients.
Primary human keratinocytes were cultured in EpiLife medium containing HKGS growth supplement and seeded in tissue culture plates at 250,000 cells per plate. On the next day, the culture medium was removed and keratinocytes were then treated with culture medium containing vehicle control (DMSO) or increasing concentrations of Compound 1 (1, 10, 30 uM). After 48 hours of culture, keratinocytes were removed from tissue culture plates and cell viability was assessed by staining for apoptotic markers (annexin V and propidium iodide) using flow cytometry.

IL-17 = IL-17 secretion by pre-existing (differentiated) Th17 polarized cells after TCR stimulus
IL-17A [5] = assay type: cell-based

| SMILES | number of biomarkers modulated (primary human cell types) | lipogenesis relative to control (LXR+Insulin group) [1] | lipogenesis relative to control (LXR+Insulin group) ([1]; listed as compound 1) | IL-17A protein levels (IL-17A [2]) | skin redness and thickness [3] | MIC (P. acnes; Cutibacterium acnes, P. acnes reference strain ATCC6919, read-out: MIC) | MIC (P. acnes; Cutibacterium acnes, all P. acnes strains tested, read-out: MIC) | MIC (P. acnes; P. acnes strain 6601) | MIC (P. acnes; P. acnes strain 6602) | MIC (P. acnes; P. acnes strain 100372) | MIC (P. acnes; P. acnes strain AN24) | antibacterial activity against P. acnes (P. acnes; judgement based on MIC results) | keratinocyte viability / cytotoxicity [4] | reduction of IL-17 levels relative to stimulus alone (IL-17; 30 μM, 24 hours) | suppression of IL-17 secretion (IL-17A [5]; 100 nM) | reduction of IL-17 (IL-17A [5]; 10 μM) | IL-17A mRNA expression (IL-17A [5]; normalized to PPIB, 5-day culture) | effect on IL-17 (IL-17; 30 μM) | effect on IL-17 (IL-17; lower concentrations (below 30 μM)) |
| --- | --- | --- | --- | --- | --- | --- | --- | --- | --- | --- | --- | --- | --- | --- | --- | --- | --- | --- | --- |
| CC(C)c1c(O)cc(/C=C/c2ccccc2)cc1O [Compound 1] | more than 25 | not active | trends towards increased lipogenesis | suppressed by compound 1 in a dose-dependent manner | dose dependent reduction in both skin redness and thickness | 128 µg/mL | 128 µg/mL | 128 µg/mL | 128 µg/mL | 128 µg/mL | 128 µg/mL | would not be considered to be active | overtly cytotoxic | 80-95% | more than 60% | approximately 80% | inhibited IL-17A mRNA expression in parallel and at the same potency as secretion of IL-17 protein | – | – |
| Oc1ccc(C=Cc2cc(O)cc(O)c2)cc1 [Resveratrol] | – | – | – | – | – | – | – | – | – | – | – | – | – | – | – | – | – | partial inhibition | enhancement |

— patent US10376475B2, “Method of use” (Dermavant Sciences GmbH, priority 2014, dated 2019)
